Reference: PubChem BioAssay (NCI)
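Values below derive from 48-hour exposures of cells grown in 96-well plates, with endpoints linearly interpolated between the two concentrations bracketing the appropriate inhibition level. Definition used: TGI = concentration required for complete inhibition of growth.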

Columns and labels:
Experiment in all cases: DTP human tumour cell line panel, 48 h
SF-539 CNS = tested on: SF-539 CNS
HCC-2998 colon = tested on: HCC-2998 colon
A498 renal = tested on: A498 renal
HL-60(TB) leukemia = tested on: HL-60(TB) leukemia
HCT-116 colon = tested on: HCT-116 colon
SF-268 CNS = tested on: SF-268 CNS
SK-MEL-28 melanoma = tested on: SK-MEL-28 melanoma
DU-145 prostate = tested on: DU-145 prostate
SF-295 CNS = tested on: SF-295 CNS
OVCAR-8 ovarian = tested on: OVCAR-8 ovarian
SNB-19 CNS = tested on: SNB-19 CNS
NCI-H23 lung = tested on: NCI-H23 lung
MALME-3M melanoma = tested on: MALME-3M melanoma
HT29 colon = tested on: HT29 colon
EKVX NSCLC = tested on: EKVX NSCLC
PC-3 prostate = tested on: PC-3 prostate

## c1cc2nnc1SCCSCCSc1ccc(nn1)SCCSCCS2
SF-539 CNS
  TGI: 96.8 µM
HCC-2998 colon
  TGI: > 100 µM
A498 renal
  TGI: > 100 µM
HL-60(TB) leukemia
  TGI: > 100 µM
HCT-116 colon
  TGI: > 100 µM
SF-268 CNS
  TGI: > 100 µM
SK-MEL-28 melanoma
  TGI: > 100 µM
DU-145 prostate
  TGI: > 100 µM
SF-295 CNS
  TGI: > 100 µM
OVCAR-8 ovarian
  TGI: > 100 µM
SNB-19 CNS
  TGI: > 100 µM
NCI-H23 lung
  TGI: > 100 µM
MALME-3M melanoma
  TGI: > 100 µM
HT29 colon
  TGI: > 100 µM
EKVX NSCLC
  TGI: > 100 µM
PC-3 prostate
  TGI: > 100 µM

## CC(=O)C(CN1CCCCC1)C(c1ccccc1)c1c(O)c2ccccc2oc1=O (stereo not drawn)
SF-539 CNS
  TGI: > 100 µM
HCC-2998 colon
  TGI: > 100 µM
A498 renal
  TGI: > 100 µM
HL-60(TB) leukemia
  TGI: > 100 µM
HCT-116 colon
  TGI: > 100 µM
SF-268 CNS
  TGI: > 100 µM
SK-MEL-28 melanoma
  TGI: > 100 µM
DU-145 prostate
  TGI: > 100 µM
SF-295 CNS
  TGI: > 100 µM
OVCAR-8 ovarian
  TGI: > 100 µM
SNB-19 CNS
  TGI: > 100 µM
NCI-H23 lung
  TGI: > 100 µM
MALME-3M melanoma
  TGI: > 100 µM
HT29 colon
  TGI: > 100 µM
EKVX NSCLC
  TGI: > 100 µM
PC-3 prostate
  TGI: > 100 µM

## Cc1ccc(-c2cc(N)n(-c3nc4c([nH]3)c(=O)n(C)c(=O)n4C)n2)cc1
SF-539 CNS
  TGI: 16 µM
HCC-2998 colon
  TGI: > 100 µM
A498 renal
  TGI: 21 µM
HL-60(TB) leukemia
  TGI: > 100 µM
HCT-116 colon
  TGI: 15.9 µM
SF-268 CNS
  TGI: 34.5 µM
SK-MEL-28 melanoma
  TGI: 94.8 µM
DU-145 prostate
  TGI: 20.4 µM
SF-295 CNS
  TGI: 24.9 µM
OVCAR-8 ovarian
  TGI: 15.3 µM
SNB-19 CNS
  TGI: > 100 µM
NCI-H23 lung
  TGI: 28 µM
MALME-3M melanoma
  TGI: 16 µM
HT29 colon
  TGI: > 100 µM
EKVX NSCLC
  TGI: 21.6 µM
PC-3 prostate
  TGI: > 100 µM

## C=CCN(CC=C)Cn1c(=S)sc2ccccc21
SF-539 CNS
  TGI: > 100 µM
HCC-2998 colon
  TGI: > 100 µM
HL-60(TB) leukemia
  TGI: 41 µM
HCT-116 colon
  TGI: > 100 µM
SF-268 CNS
  TGI: > 100 µM
SK-MEL-28 melanoma
  TGI: > 100 µM
DU-145 prostate
  TGI: > 100 µM
SF-295 CNS
  TGI: > 100 µM
OVCAR-8 ovarian
  TGI: > 100 µM
SNB-19 CNS
  TGI: > 100 µM
NCI-H23 lung
  TGI: > 100 µM
EKVX NSCLC
  TGI: > 100 µM
PC-3 prostate
  TGI: > 100 µM

## CC(C)=CCN1CC(C)C(=O)Nc2cc(Cl)ccc21 (stereo not drawn)
SF-539 CNS
  TGI: 43 µM
HCC-2998 colon
  TGI: 97.6 µM
A498 renal
  TGI: > 100 µM
HL-60(TB) leukemia
  TGI: > 100 µM
HCT-116 colon
  TGI: 31.9 µM
SF-268 CNS
  TGI: > 100 µM
SK-MEL-28 melanoma
  TGI: > 100 µM
DU-145 prostate
  TGI: > 100 µM
SF-295 CNS
  TGI: > 100 µM
OVCAR-8 ovarian
  TGI: 79.4 µM
SNB-19 CNS
  TGI: > 100 µM
NCI-H23 lung
  TGI: 85.5 µM
MALME-3M melanoma
  TGI: 62.3 µM
HT29 colon
  TGI: 38.3 µM
EKVX NSCLC
  TGI: 94.8 µM
PC-3 prostate
  TGI: 47.5 µM

## CCOC(=O)CCC(NC(=O)c1ccc(OCc2nc3cc(C(F)(F)F)ccc3nc2-c2ccccc2)cc1)C(=O)OCC (stereo not drawn)
SF-539 CNS
  TGI: > 100 µM
A498 renal
  TGI: > 100 µM
HL-60(TB) leukemia
  TGI: > 100 µM
HCT-116 colon
  TGI: > 100 µM
SF-268 CNS
  TGI: > 100 µM
SK-MEL-28 melanoma
  TGI: > 100 µM
DU-145 prostate
  TGI: > 100 µM
SF-295 CNS
  TGI: > 100 µM
OVCAR-8 ovarian
  TGI: > 100 µM
SNB-19 CNS
  TGI: > 100 µM
NCI-H23 lung
  TGI: > 100 µM
MALME-3M melanoma
  TGI: > 100 µM
HT29 colon
  TGI: > 100 µM
EKVX NSCLC
  TGI: > 100 µM
PC-3 prostate
  TGI: > 100 µM

## CCOC(=O)c1sc2nc(SC)nc3c2c1N=CN3c1ccc(Br)cc1
HCC-2998 colon
  TGI: > 100 µM
A498 renal
  TGI: > 100 µM
HL-60(TB) leukemia
  TGI: > 100 µM
HCT-116 colon
  TGI: > 100 µM
SK-MEL-28 melanoma
  TGI: > 100 µM
DU-145 prostate
  TGI: > 100 µM
SF-295 CNS
  TGI: > 100 µM
OVCAR-8 ovarian
  TGI: > 100 µM
SNB-19 CNS
  TGI: > 100 µM
NCI-H23 lung
  TGI: > 100 µM
MALME-3M melanoma
  TGI: > 100 µM
HT29 colon
  TGI: > 100 µM
EKVX NSCLC
  TGI: > 100 µM
PC-3 prostate
  TGI: > 100 µM

## CC12CC(c3ccccc3O1)C(C(=O)Nc1ccc(F)cc1)C(=O)N2 (stereo not drawn)
SF-539 CNS
  TGI: > 100 µM
HCC-2998 colon
  TGI: > 100 µM
A498 renal
  TGI: > 100 µM
HL-60(TB) leukemia
  TGI: > 100 µM
HCT-116 colon
  TGI: > 100 µM
SF-268 CNS
  TGI: > 100 µM
SK-MEL-28 melanoma
  TGI: > 100 µM
DU-145 prostate
  TGI: > 100 µM
OVCAR-8 ovarian
  TGI: > 100 µM
SNB-19 CNS
  TGI: > 100 µM
NCI-H23 lung
  TGI: > 100 µM
MALME-3M melanoma
  TGI: > 100 µM
HT29 colon
  TGI: > 100 µM
EKVX NSCLC
  TGI: > 100 µM
PC-3 prostate
  TGI: > 100 µM

## N#CC1=C(N)OC2=C(CSc3ccccc32)C1c1ccc(Br)cc1 (stereo not drawn)
SF-539 CNS
  TGI: 13.7 µM
A498 renal
  TGI: 27.2 µM
HL-60(TB) leukemia
  TGI: 6.17 µM
HCT-116 colon
  TGI: 14.2 µM
SF-268 CNS
  TGI: 25.6 µM
SK-MEL-28 melanoma
  TGI: 28 µM
DU-145 prostate
  TGI: > 100 µM
SF-295 CNS
  TGI: 29 µM
OVCAR-8 ovarian
  TGI: 14.8 µM
SNB-19 CNS
  TGI: 51.9 µM
NCI-H23 lung
  TGI: 26.4 µM
MALME-3M melanoma
  TGI: 30.7 µM
HT29 colon
  TGI: 18.4 µM
EKVX NSCLC
  TGI: 11.4 µM
PC-3 prostate
  TGI: 16.8 µM

## c1cc(-c2cnc(-c3ccc4c(c3)CCCO4)o2)ccn1
SF-539 CNS
  TGI: 21.8 µM
A498 renal
  TGI: 25.8 µM
HL-60(TB) leukemia
  TGI: 21.9 µM
HCT-116 colon
  TGI: 31.6 µM
SF-268 CNS
  TGI: 33.2 µM
SK-MEL-28 melanoma
  TGI: 32.2 µM
DU-145 prostate
  TGI: 24.8 µM
SF-295 CNS
  TGI: 37.4 µM
OVCAR-8 ovarian
  TGI: 27.6 µM
SNB-19 CNS
  TGI: 40.9 µM
NCI-H23 lung
  TGI: 30.2 µM
MALME-3M melanoma
  TGI: 30.6 µM
HT29 colon
  TGI: 41.3 µM
EKVX NSCLC
  TGI: 40.5 µM
PC-3 prostate
  TGI: 24.4 µM

## CCN(CC)CCn1c2cc3c(cc2c(=O)c2cccnc21)OCCO3
SF-539 CNS
  TGI: > 10 µM
HCC-2998 colon
  TGI: > 10 µM
HL-60(TB) leukemia
  TGI: > 10 µM
HCT-116 colon
  TGI: > 10 µM
SF-268 CNS
  TGI: > 10 µM
SK-MEL-28 melanoma
  TGI: > 10 µM
DU-145 prostate
  TGI: > 10 µM
SF-295 CNS
  TGI: > 10 µM
OVCAR-8 ovarian
  TGI: > 10 µM
SNB-19 CNS
  TGI: > 10 µM
NCI-H23 lung
  TGI: > 10 µM
MALME-3M melanoma
  TGI: > 10 µM
HT29 colon
  TGI: > 10 µM
EKVX NSCLC
  TGI: > 10 µM
PC-3 prostate
  TGI: > 10 µM

## c1sc(NC2=NCCO2)c2c1CCCC2
SF-539 CNS
  TGI: > 100 µM
HCC-2998 colon
  TGI: > 100 µM
A498 renal
  TGI: > 100 µM
HL-60(TB) leukemia
  TGI: > 100 µM
HCT-116 colon
  TGI: > 100 µM
SK-MEL-28 melanoma
  TGI: > 100 µM
DU-145 prostate
  TGI: > 100 µM
SF-295 CNS
  TGI: > 100 µM
OVCAR-8 ovarian
  TGI: > 100 µM
SNB-19 CNS
  TGI: > 100 µM
NCI-H23 lung
  TGI: > 100 µM
MALME-3M melanoma
  TGI: > 100 µM
HT29 colon
  TGI: > 100 µM
EKVX NSCLC
  TGI: > 100 µM
PC-3 prostate
  TGI: > 100 µM

## c1ccc(C[P+]2(c3ccccc3)c3ccccc3-c3ccccc32)cc1
SF-539 CNS
  TGI: > 100 µM
HCC-2998 colon
  TGI: > 100 µM
HL-60(TB) leukemia
  TGI: > 100 µM
HCT-116 colon
  TGI: > 100 µM
SF-268 CNS
  TGI: > 100 µM
SK-MEL-28 melanoma
  TGI: > 100 µM
DU-145 prostate
  TGI: > 100 µM
SF-295 CNS
  TGI: > 100 µM
OVCAR-8 ovarian
  TGI: > 100 µM
SNB-19 CNS
  TGI: > 100 µM
NCI-H23 lung
  TGI: > 100 µM
EKVX NSCLC
  TGI: > 100 µM
PC-3 prostate
  TGI: > 100 µM

## CCCCN(CC)c1nc(C)nc2c1c(C)c(C)n2-c1c(C)cc(C)cc1C
SF-539 CNS
  TGI: 6.46 µM
A498 renal
  TGI: 31.3 µM
HL-60(TB) leukemia
  TGI: 19.3 µM
HCT-116 colon
  TGI: 23.4 µM
SF-268 CNS
  TGI: 31.8 µM
SK-MEL-28 melanoma
  TGI: 31.5 µM
DU-145 prostate
  TGI: 30.2 µM
SF-295 CNS
  TGI: 28 µM
OVCAR-8 ovarian
  TGI: 28.5 µM
SNB-19 CNS
  TGI: 33.3 µM
NCI-H23 lung
  TGI: 28.2 µM
MALME-3M melanoma
  TGI: 29.6 µM
HT29 colon
  TGI: 22.6 µM
EKVX NSCLC
  TGI: 27.5 µM
PC-3 prostate
  TGI: 26.6 µM

## CCCN=C1CC(C)Nc2ccccc2N1 (stereo not drawn)
A498 renal
  TGI: > 100 µM
HL-60(TB) leukemia
  TGI: > 100 µM
HCT-116 colon
  TGI: > 100 µM
SF-268 CNS
  TGI: > 100 µM
SK-MEL-28 melanoma
  TGI: > 100 µM
DU-145 prostate
  TGI: > 100 µM
SF-295 CNS
  TGI: > 100 µM
OVCAR-8 ovarian
  TGI: > 100 µM
SNB-19 CNS
  TGI: > 100 µM
NCI-H23 lung
  TGI: > 100 µM
MALME-3M melanoma
  TGI: > 100 µM
HT29 colon
  TGI: > 100 µM
EKVX NSCLC
  TGI: > 100 µM
PC-3 prostate
  TGI: > 100 µM
